Measurements taken from patent US7981922B2, “Angiotensin I-converting enzyme (ACE) inhibitors” (University of Cape Town, priority 2005, dated 2011).

What was measured:
N-domain of ACE = N-domain of ACE (Homo sapiens, UniProt P12821); assay: ACE inhibitory activity, fluorometric determination of His-Leu, N-domain; format: biochemical; settings: substrate Z-Phe-His-Leu; no inhibition up to 500 μM; read-out: Ki (N-dom) ZPHL
Method: (§1) The ACE inhibitory activity (as tabulated in Table 1) was measured by the fluorometric determination of pthaldialdehyde-derivatised histidylleucine, a product of the enzyme reaction according to the method of Almquist et al.,^12 with some modifications. For tACEdelta36NJ and N-domain inhibition using Z-Phe-His-Leu as substrate: —10 μL of 0.05 mg/mL enzyme+120 μL inhibitor at ambient temperature for 3 hours. Inhibitor concentrations ranged from 2.0 μM to 500 μM. A 3.0 μL aliquot of this was assayed for enzyme activity using 30 μL of 1.0 mM […]. This was incubated (in triplicate) for 30 mins at 37° C. and stopped with 180 μL solution of 0.28N NaOH. To this alkalized mixture 12 μL of o-pthaldialdehyde (150 mM) was added and the mixture incubated for another 10 mins at room temperature. Reactions were stopped by adding 26 μL solution of 3N HCl. Fluorescence was measured at Ex=360 nm; Em=486 nm, 5×5 slit width along with a His-Leu standard calibration curve fluorometer: Varian Cary Eclipse plate reader.
(§2) All assays included enzyme incubated with buffer in the absence of inhibitor (i.e. 0 μM inhibitor concentration).

tACEdelta36NJ = tACEdelta36NJ (Homo sapiens, UniProt P12821); assay: ACE inhibitory activity, fluorometric determination of His-Leu, tACE; format: biochemical; settings: for C domain-selectivity: C domain (tACE) versus N domain; for Ki: substrate Z-Phe-His-Leu, enzyme + inhibitor 3 hours at ambient temperature, read-out: Ki (tACE) ZPHL
tACEdelta36NJ, sequence (P12821 642-1230 limits assumed): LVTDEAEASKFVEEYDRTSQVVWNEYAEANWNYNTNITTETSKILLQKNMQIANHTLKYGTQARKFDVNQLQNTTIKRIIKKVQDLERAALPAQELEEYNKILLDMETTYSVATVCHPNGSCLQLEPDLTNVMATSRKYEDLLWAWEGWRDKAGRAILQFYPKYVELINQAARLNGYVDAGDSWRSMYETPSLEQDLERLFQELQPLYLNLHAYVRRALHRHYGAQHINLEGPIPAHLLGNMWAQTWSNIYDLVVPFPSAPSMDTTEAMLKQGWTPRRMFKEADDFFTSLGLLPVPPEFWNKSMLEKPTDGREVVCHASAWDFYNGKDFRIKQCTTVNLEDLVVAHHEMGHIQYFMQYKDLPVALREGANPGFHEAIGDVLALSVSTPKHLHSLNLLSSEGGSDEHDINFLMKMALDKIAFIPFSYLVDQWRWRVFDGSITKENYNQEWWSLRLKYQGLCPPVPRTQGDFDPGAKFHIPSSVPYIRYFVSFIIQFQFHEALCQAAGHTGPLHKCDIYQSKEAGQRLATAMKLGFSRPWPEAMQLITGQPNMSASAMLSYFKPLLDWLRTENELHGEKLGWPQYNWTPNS
Method: as §1, §2

ACE C-domain = settings: C-domain versus N-domain of ACE; cited from earlier work

N-domain of ACE, sequence (P12821 40-624 limits assumed): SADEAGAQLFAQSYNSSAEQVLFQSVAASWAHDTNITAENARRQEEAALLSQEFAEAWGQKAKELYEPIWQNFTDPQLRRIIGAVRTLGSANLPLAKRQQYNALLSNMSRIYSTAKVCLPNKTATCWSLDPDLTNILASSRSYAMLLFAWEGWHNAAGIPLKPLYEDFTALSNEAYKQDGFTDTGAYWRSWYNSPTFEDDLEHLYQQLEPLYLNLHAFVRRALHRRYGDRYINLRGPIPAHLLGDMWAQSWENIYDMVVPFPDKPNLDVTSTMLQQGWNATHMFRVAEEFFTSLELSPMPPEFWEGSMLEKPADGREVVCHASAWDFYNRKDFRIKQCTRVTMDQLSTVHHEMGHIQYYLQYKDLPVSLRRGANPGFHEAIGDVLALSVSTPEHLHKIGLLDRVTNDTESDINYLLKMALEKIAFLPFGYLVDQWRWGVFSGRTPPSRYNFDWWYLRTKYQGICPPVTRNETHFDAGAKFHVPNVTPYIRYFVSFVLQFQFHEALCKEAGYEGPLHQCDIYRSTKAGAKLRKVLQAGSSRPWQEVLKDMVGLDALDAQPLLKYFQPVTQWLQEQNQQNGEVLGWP

Ki (N-domain of ACE)	C domain-selectivity (tACEdelta36NJ)	Ki (tACEdelta36NJ)	SMILES	C-domain selective (ACE C-domain)
> 500 µM	> 19 fold	26.3 µM	NCCCC[C@H](N[C@@H](CCc1ccccc1)C(=O)O)C(=O)N[C@@H](Cc1c[nH]c2ccccc12)C(=O)O [Compound 6]	
> 500 µM	> 72 fold	7 µM	NCCCC[C@H](N[C@H](CCc1ccccc1)C(=O)O)C(=O)N[C@@H](Cc1c[nH]c2ccccc12)C(=O)O [Compound 6a]	
			O=C(N[C@@H](Cc1ccccc1)P(=O)(O)C1CCCC1C(=O)N[C@@H](Cc1c[nH]c2ccccc12)C(=O)O)OCc1ccccc1 (stereo partly shown) [RXP A380]	~3000 fold
